# Measured values published in article PMC8227856, “Antibacterial Activity of a Promising Antibacterial Agent: 22-(4-(2-(4-Nitrophenyl-piperazin-1-yl)-acetyl)-piperazin-1-yl)-22-deoxypleuromutilin” (Molecules, 2021).
# Where two headings read alike, the source gives them in different places.
# Tests used:
# S. aureus ATCC 29213 [1] = assay: Time-kill assay; assay type: cell-based, Staphylococcus aureus
# Method: (§1) The MRSA and S. aureus in the logarithmic phase were diluted to 10^6 CFU/mL with MHB. Then diverse concentrations of NPDM or tiamulin were added to the bacteria solution reaching the final concentration of 1 × MIC, 2 × MIC, 4 × MIC, and 8 × MIC, respectively. All bacterial inoculums were cultured at 37 °C with shaking. A total of 100 μL samples were taken from the subcultures at 0, 3, 6, 9, and 24 h, respectively, and continuously diluted 10-fold in sterile saline; then, 25 μL diluent was plated on the MHA plate. All plates were placed at 37 °C for 24 h. The total number of colonies on the plate was counted, and the results were expressed as log (CFU/mL).
# MRSA ATCC 43300 [2] = assay: Time-kill assay; assay type: cell-based, Staphylococcus aureus
# Method: as §1
# MRSA ATCC 43300 [3] = assay: MBC assay; assay type: cell-based, Staphylococcus aureus
# Method: (§2) Determination of MBCs refers to the minimum concentrations of antibacterial agents required to kill 99.9% of the test microorganisms after 24 h of incubation. After obtaining the MICs value, the 96-well plates were placed at 37 °C and incubated for 24 h. One hundred microliter aliquots of the bacterial suspensions were taken from the wells without visible bacterial growth and then plated onto MHA plates. […] The MBC assay was conducted at least in triplicate.
# MRSA ATCC 43300 [4] = assay: Galleria mellonella infection model; assay type: in vivo; conditions: Staphylococcus aureus, 120 h; Galleria mellonella larvae infected with MRSA, survival over 5 days
# Method: The survival rate of Galleria mellonella was determined according to the literature with some modifications. Larvae of Galleria mellonella (16 per group) were injected with 10 μL of 10^8 CFU/mL MRSA inoculum into the last right proleg. Two hours after infection, larvae were injected with 10 μL of various doses (17.14, 25.71, 37.14, 57.14, and 85.71 mg/kg) of NPDM or tiamulin (used as reference drug) into the last left proleg. The larvae were maintained at 37 °C. Survival of the larvae was recorded daily for 5 days, and the ED50 was calculated.
# MRSA ATCC 43300 [5] = assay: Post-antibiotic effect (PAE) assay; assay type: cell-based, Staphylococcus aureus
# Method: The PAE was carried out as described in the literature. The MRSA was diluted to 10^6 CFU/mL in MHB. The NPDM or tiamulin was added into the bacteria solution at the final concentrations of 2 × MIC and 4 × MIC. Then all tubes were incubated at 37 °C for 1 h or 2 h. Each of the above inoculums was diluted 1000-fold with pre-warmed MHB to remove the test compounds and placed in a water bath at 37 °C immediately. One hundred microliters of suspension were taken from each culture, diluted 10-fold in sterile saline, and inoculated on MHA plates at 0, 1, 2, 4, and 6 h after inoculation. The total number comprising the colonies was counted after incubation at 37 °C for 20 h. The PAE was calculated referring to published methods. The experiment was performed in triplicate.
# BRL-3A cells = assay: Cytotoxicity, MTT assay; assay type: cell-based; conditions: Rattus norvegicus, 16 h, read-out: 50% inhibition concentration (IC50), cell viability
# Method: The cytotoxicity of NPDM was evaluated by the MTT assay as previously reported. Briefly, the medium containing 1 × 10^5 BRL-3A cells per 1 mL was seeded into a 96-well plate at 100 μL per well. After incubation for 48 h, media were replaced with 100 μL of serial dilutions of test compounds and incubated for 16 h. The absorbance (A) was measured at 490 nm by an automatic microplate reader (BIO-TEK Instrument Inc., Winooski, VT, USA). The cell viability was calculated according to Equation (1):(1) Cell viability (%) = (Asimple−Anegative)/(Apositive−Anegative)×100%
# A graph was constructed by plotting the inhibition percentage versus various concentrations of NPDM and tiamulin, from which the IC50 of NPDM or tiamulin was calculated. The measurement was repeated in triplicate.
# [6] = Acute oral toxicity in mice; assay type: in vivo; conditions: for LD50 at 2 weeks: both sexes, mice, oral single dose; for LD50 at 2 weeks / Mortality / Mortality Rate: mouse, in vivo, po; for Mortality / Mortality Rate: both, 2 weeks
# Method: The acute oral toxicity of NPDM was evaluated according to the method reported in the literature. Mice were divided into 6 groups (10 animals each group, half male and half female) and were fasted for 12 h before the experiment. The NPDM was dissolved in DMSO and suspended in 0.5% sodium carboxymethyl cellulose solution. The volumes of suspension by oral gavages were 0.1 mL/10 g. The vehicle control group received DMSO without drug. All animals were observed twice daily for symptoms and mortality for two weeks. At the end of the study, all surviving animals were sacrificed.
# S. aureus ATCC 29213 [7] = assay: Neutropenic mouse thigh infection model; assay type: in vivo, Staphylococcus aureus; conditions: 20 mg/kg i.v., neutropenic mice
# Method: (§3) The mouse thigh infection model was performed as described in the literature with minor modifications. Briefly, female mice had induced neutropenia (neutrophil count ≤ 100/mm^3) by administered intraperitoneally cyclophosphamide on day 4 (150 mg/kg) and day 1 (100 mg/kg) before the experiment. A bacterial suspension of 0.1 mL (MRSA or S. aureus) containing approximately 10^7 CFU/mL microorganism was injected into the posterior thigh of mice to establish infection. Two hours after infection, mice were intravenously injected with NPDM or tiamulin at 20 mg/kg. After 24 h, thighs (six per group) were collected upon euthanasia. Then, thighs were weighed and homogenized with sterile saline. Tissue homogenate was continuously diluted 10-fold and plated on MHA plates for colony counts. SPSS 19 software was used for statistical analysis and t-tests.
# MRSA ATCC 43300 [8] = assay: Neutropenic mouse thigh infection model; assay type: in vivo, Staphylococcus aureus; conditions: 20 mg/kg i.v., neutropenic mice
# Method: as §3
# MRSA ATCC 43300 [9] = assay: Neutropenic mouse systemic infection model; assay type: in vivo, Staphylococcus aureus; conditions: 30 mg/kg i.v.
# Method: The survival rate of mice was determined by the systemic infection model according to the literature with some modifications. Neutropenic mice (10 per group, half male and half female) were injected with 0.5 mL MRSA inoculum of 10^6 CFU/mL (100% minimum lethal dose) intraperitoneally. One hour after infection, the mice were administered with NPDM or tiamulin intravenously at a dose of 30 mg/kg body weight. Tiamulin was used as a reference drug. The survival of the mice was recorded for 7 days.
# [10] = tested on: S. aureus AD3 (clinical strain); assay: MBC assay; assay type: cell-based; conditions: Staphylococcus aureus
# Method: as §2
# S. aureus ATCC 29213 [11] = assay: MBC assay; assay type: cell-based; conditions: Staphylococcus aureus, ATCC29213
# Method: as §2
# [12] = tested on: S. aureus 144 (clinical strain); assay: MBC assay; assay type: cell-based; conditions: Staphylococcus aureus
# Method: as §2
# [13] = Pharmacokinetic study in mice, plasma LC-MS/MS; assay type: in vivo
# Method: Adult female mice fasted for 12 h before the experiment. The NPDM was administered intravenously at the dose of 10 mg/kg. Approximately 0.2 mL blood samples were collected from the ocular venous plexus at 0.083, 0.167, 0.25, 0.5, 0.75, 1, 2, 4, 6, 8, 12, and 24 h after administration. All samples were centrifuged at 3000 rpm for 10 min, then the plasma samples were separated and stored at −20 °C. After thawing at room temperature, samples were mixed with acetonitrile (HPLC grade, sample:acetonitrile = 1:4, v/v) and centrifuged at 12,000 rpm for 10 min. Then, the supernatant was purified by the 0.22 μm cellulose membrane filter and transferred into an autosampler vial for HPLC-MS/MS analysis. Information of the equipment and analysis conditions are available in the Supplemental Materials. The pharmacokinetic parameters of the NPDM were calculated using the non-compartmental model in WinNonlin 5.2 software (Pharsight, Mountain View, CA, USA).
# [14] = tested on: S. aureus AD3 (clinical strain); assay: MIC, broth dilution micro-method; assay type: cell-based; conditions: Staphylococcus aureus, 24 h, MHB
# Method: (§4) The MICs of NPDM against MRSA were determined by the broth dilution micro-method. Briefly, the stock solution of NPDM and the reference drug tiamulin were diluted by a two-fold serial dilution method with MHB in a 96-well plate to provide concentration ranges of 16~0.032 μg/mL. Then 100 μL of bacterial suspensions in log phase were diluted to 10^6 CFU/mL with MHB and were added to each well to make the final concentrations of the test compounds ranging from 8 to 0.016 μg/mL. The bacterial suspension (no drugs but solvent) was used as the positive control and MHB (no cultures) was used as the negative control. […] The MICs assay was carried out in triplicate.
# S. aureus ATCC 29213 [15] = assay: MIC, broth dilution micro-method; assay type: cell-based; conditions: Staphylococcus aureus, ATCC29213, 24 h, MHB
# Method: as §4
# MRSA ATCC 43300 [16] = assay: MIC, broth dilution micro-method; assay type: cell-based; conditions: Staphylococcus aureus, 24 h, MHB
# Method: as §4
# [17] = tested on: S. aureus 144 (clinical strain); assay: MIC, broth dilution micro-method; assay type: cell-based; conditions: Staphylococcus aureus, 24 h, MHB
# Method: as §4
# [18] = female, mouse, plasma, iv, 10 mg/kg i.v., non-compartmental
smiles,measurement,setting,value
"C=C[C@]1(C)C[C@@H](OC(=O)CN2CCN(C(=O)CN3CCN(c4ccc([N+](=O)[O-])cc4)CC3)CC2)[C@]2(C)[C@H](C)CC[C@]3(CCC(=O)[C@H]32)[C@@H](C)[C@@H]1O [NPDM, 22-(4-(2-(4-nitrophenyl-piperazin-1-yl)-acetyl)-piperazin-1-yl)-22-deoxypleuromutilin]",Concentration showing bacteriostatic effect,S. aureus ATCC 29213 [1],≥ 2 × MIC
same,Time-kill activity at 2 × MIC,MRSA ATCC 43300 [2]; 2 × MIC,bactericidal activity
same,Concentration showing bactericidal activity (≥3 log10 CFU/mL decrease),MRSA ATCC 43300 [2]; after incubation for 24 h,≥ 2 × MIC
same,MBC,"MRSA ATCC 43300 [3]; Staphylococcus aureus, MRSA ATCC 43300",0.125 µg/mL
same,MBC/MIC value,MRSA ATCC 43300 [3]; against MRSA,one
same,ED50,MRSA ATCC 43300 [4],50.5 mg/kg
same,PAE,"MRSA ATCC 43300 [5]; 2 × MIC, exposure for 1 h",2.58 h
same,PAE,"MRSA ATCC 43300 [5]; 2 × MIC, exposure for 2 h",3.62 h
same,PAE,"MRSA ATCC 43300 [5]; 4 × MIC, exposure for 1 h",3.11 h
same,PAE,"MRSA ATCC 43300 [5]; 4 × MIC, exposure for 2 h",4.03 h
same,PAE longer than that of tiamulin,MRSA ATCC 43300 [5]; difference vs tiamulin,1~2 h
same,IC50,BRL-3A cells,9.64 µg/mL
same,Acute toxicity classification,[6]; LD50 in the range of 501~5000 mg/kg,low-toxic compound
same,LD50 at 2 weeks,"[6]; modified Karber's formula, read-out: LD50",3760 mg/kg
same,LD50 at 2 weeks,[6]; read-out: LD50 95% confidence interval,3010 to 4710 mg/kg
same,Mortality,[6]; 987.65 mg/kg,1
same,Mortality Rate,[6]; 987.65 mg/kg,10%
same,Mortality,[6]; 1481.48 mg/kg,1
same,Mortality Rate,[6]; 1481.48 mg/kg,10%
same,Mortality,[6]; 2222.22 mg/kg,2
same,Mortality Rate,[6]; 2222.22 mg/kg,20%
same,Mortality,[6]; 3333.33 mg/kg,3
same,Mortality Rate,[6]; 3333.33 mg/kg,30%
same,Mortality,[6]; 5000 mg/kg,5
same,Mortality Rate,[6]; 5000 mg/kg,50%
same,Average amount of S. aureus inoculum in thighs,S. aureus ATCC 29213 [7]; 24 h after treatment,(1.23 ± 0.51) × 10^8 CFU
same,Reduction of mean bacterial counts in thighs vs untreated group,"S. aureus ATCC 29213 [7]; S. aureus, 24 h",~ 0.95 log CFU/mL
same,Reduction of mean MRSA counts in thighs vs untreated group,MRSA ATCC 43300 [8]; 24 h,~ 1.61 log CFU/mL
same,Average amount of MRSA inoculum in thighs,MRSA ATCC 43300 [8]; 24 h after treatment,(8.16 ± 3.70) × 10^7 CFU
same,Survival rate at the endpoint,"MRSA ATCC 43300 [9]; lethal MRSA challenge, 7 days, neutropenic mice",70%
same,Survival rate higher than that of the tiamulin-treated group,MRSA ATCC 43300 [9]; difference vs tiamulin,20%
same,MBC,[10],0.5 µg/mL
same,MBC,S. aureus ATCC 29213 [11],0.25 µg/mL
same,MBC,[12],0.5 µg/mL
same,MRT,"[13]; 10 mg/kg i.v., non-compartmental, 10 mg/kg",18.6 ± 3 min
same,clearance,"[13]; female, mouse, plasma, 10 mg/kg, single intravenous administration",46 mL/min/kg
same,AUC(0-inf),[13]; [18],3660 ± 370 ng·h/mL
same,AUC(0-t),[13]; [18],3650 ± 400 ng·h/mL
same,Cmax,[13]; [18],8690 ± 740 ng/mL
same,Tmax,[13]; [18],4.98 min
same,half-life,[13]; [18],13.2 ± 2.4 min
same,MRT,"[13]; female, mouse, plasma, iv, 10 mg/kg, 10 mg/kg i.v., non-compartmental, read-out: MRT",21.6 min
same,MIC,[14],0.125 µg/mL
same,MIC,S. aureus ATCC 29213 [15],0.125 µg/mL
same,MIC,MRSA ATCC 43300 [16],0.125 µg/mL
same,MIC,[17],0.125 µg/mL
